One compound from ChEMBL document CHEMBL1143759, “Losartan and its interaction with copper(II): biological effects” (2007) can be followed below.

Each structure is given as a SMILES string.

Test [1] is described as follows: Inhibition of cell proliferation of rat UMR106 cells at 500 uM. It is filed as functional. Also on record: scale not given: the % may be the effect or the level left.
A short description of test [2]: Inhibition of cell proliferation of mouse MC3T3E1 cells at 500 uM. The class given is functional, MC3T3-E1. Also on record: scale not given: the % may be the effect or the level left.

Take `CCCCc1nc(Cl)c(CO)n1Cc1ccc(-c2ccccc2-c2nnn[n-]2)cc1.[K+]` [LOSARTAN POTASSIUM]: the Activity in test [1] and in test [2] was 10% in each case.
